Laboratory results as given in PubChem BioAssay AID1963985 (Molecular Pharmacology Branch, DTP, NCI, 2024).

Test system: 252836-082-R-J2-PDC tumor spheroids, viability
Experiment: Anticancer human tumor 252836-082-R-J2-PDC patient-derived head and neck squamous cell carcinoma cell line growth inhibition [PI3K]
Settings: spheroids with HUVEC and MSC; for IC50: curve of first compound; for viability, T/C: stronger effect = lower value; active = viability on the fitted dose curve at most 10% of control; inactive = the rest
Text: Combinatorial screen of targeted agents with the PI3K inhibitors inavolisib, alpelisib, duvelisib, and copanlisib in multi-cell type tumor spheroids
A high-throughput screen of multi-cell type tumor spheroids was designed to identify active combinations of targeted small molecules and PI3K pathway inhibitors. Complex spheroids include a stromal component modeled by human endothelial cells (HUVEC) and fibroblasts modeled by human mesenchymal stem cells (MSCs). The concentration ranges selected for each drug and investigational agent were based upon clinically achievable concentrations if the clinical Cmax of the agent was known.
Compounds. The drugs and investigational agents: inavolisib (NSC800729), alpelisib (NSC765974), duvelisib (NSC772469), copanlisib (NSC816437), ipatasertib (NSC767898), afuresertib (NSC778305), talazoparib (NSC767125), sapanisertib (NSC764658), selumetinib (NSC741078), tovorafenib (DAY101, NSC766906), vemurafenib (NSC761431), ravoxertinib (NSC781343), sotorasib (NSC818433), MRTX1133 (NSC 836407), abemaciclib (NSC 768073), palbociclib (NSC758247), venetoclax (NSC 766270), SY5609 (NSC837396), enzalutamide (NSC755605), and darolutamide (NSC825331), were obtained from the National Cancer Institute (NCI) Developmental Therapeutics Program Chemical Repository. The FDA-approved anticancer drug set is available from the NCI Developmental Therapeutics Program. […] The stock solutions were prepared in dimethyl sulfoxide (DMSO, Sigma-Aldrich, St. Louis, MO, cat. D2650) at 800-fold the tested concentration and stored at -70 degrees C prior to their use. All drugs and investigational agents were tested over a range starting from a high concentration at or near the clinical Cmax and decreasing in half-log increments. If the clinical Cmax for an agent had not been determined, the highest concentration tested was 10 microM.
Cell Culture. All cells were maintained in an incubator at 37 degrees C and 5% CO2 with 95% humidity. The PDC lines were cultured according to standard operating procedures established by the NCI PDMR (https://pdmr.cancer.gov/sops/default.htm). All PDCs were thawed and cultured in Matrigel-coated flasks prepared with a working solution of 1X Ham's F-12 nutrient mix, without supplementation (Invitrogen, Waltham, MA, cat. 11765054), 100 U/mL penicillin-streptomycin (Invitrogen, cat. 15140122), and 2.5% Matrigel (Corning Inc., Corning, NY, cat. 354248) for the first three passages. The 354836-022-R-J1-PDC, 475296-252-R-J1-PDC, and 997726-040-R-J2-PDC lines were cultured in 6A media, which includes advanced DMEM/F-12 (Thermo Fisher Scientific, cat. 12634028), 10 mM HEPES (Thermo Fisher Scientific, cat. 15630080), 1X GlutaMAX supplement (Thermo Fisher Scientific, cat. 35050061), 0.1 mg/mL primocin (InvivoGen, San Diego, CA, cat. ant-pm-2), 10% defined fetal bovine serum, heat inactivated (HyClone Laboratories Inc., Logan, UT, cat. SH30070.03HI), 50% L-WRN conditioned media (ATCC, cat. CRL-3276), 1.25 mM N-Acetyl-L-cysteine (Sigma-Aldrich, cat. A9165), 10 mM nicotinamide (Sigma-Aldrich, cat. N0636), 1X B-27 supplement (Thermo Fisher Scientific, cat. 17504044), 1X N-2 supplement (Thermo Fisher Scientific, cat. 17502048), and 10 microM Y-27632 dihydrochloride (Tocris Bioscience, Bristol, United Kingdom, cat. 1254). The 624824-186-R-J2-PDC line was cultured in 6C/Colon 1B media, which includes all 6A media components plus 50 ng/mL human EGF recombinant protein (Thermo Fisher Scientific, cat. PHG0311). […]

[1] = second compound 0.0316 µM, first compound 0.0316 µM
[2] = second compound 0.0316 µM, first compound 0.1 µM
[3] = second compound 0.0316 µM, first compound 0.316 µM
[4] = second compound 0.0316 µM, first compound 1 µM
[5] = second compound 0.0316 µM, first compound 3.16 µM
[6] = second compound 0.0316 µM, first compound 10 µM
[7] = second compound 0.1 µM, first compound 0.0316 µM
[8] = second compound 0.1 µM, first compound 0.1 µM
[9] = second compound 0.1 µM, first compound 0.316 µM
[10] = second compound 0.1 µM, first compound 1 µM
[11] = second compound 0.1 µM, first compound 3.16 µM
[12] = second compound 0.1 µM, first compound 10 µM
[13] = second compound 0.316 µM, first compound 0.0316 µM
[14] = second compound 0.316 µM, first compound 0.1 µM
[15] = second compound 0.316 µM, first compound 0.316 µM
[16] = second compound 0.316 µM, first compound 1 µM
[17] = second compound 0.316 µM, first compound 3.16 µM
[18] = second compound 0.316 µM, first compound 10 µM
[19] = second compound 1 µM, first compound 0.0316 µM
[20] = second compound 1 µM, first compound 0.1 µM
[21] = second compound 1 µM, first compound 0.316 µM
[22] = second compound 1 µM, first compound 1 µM
[23] = second compound 1 µM, first compound 3.16 µM
[24] = second compound 1 µM, first compound 10 µM
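Note: spheroids exposed to agents for seven days before readout.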
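Throughout, for viability, T/C: percent of vehicle DMSO control viability so 100% = untreated growth.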

CC1(C)CCC(CN2CCN(c3ccc(C(=O)NS(=O)(=O)c4ccc(NCC5CCOCC5)c([N+](=O)[O-])c4)c(Oc4cnc5[nH]ccc5c4)c3)CC2)=C(c2ccc(Cl)cc2)C1 + CC(Nc1ncnc2nc[nH]c12)c1cc2cccc(Cl)c2c(=O)n1-c1ccccc1
inactive: viability, T/C [1] 96.7% | viability, T/C [2] 88.3% | viability, T/C [3] 95.9% | viability, T/C [4] 93% | viability, T/C [5] 87.3% | viability, T/C [6] 81.8% | viability, T/C [7] 102% | viability, T/C [8] 77.1% | viability, T/C [9] 79% | viability, T/C [10] 99.1% | viability, T/C [11] 80.8% | viability, T/C [12] 86.7% | viability, T/C [13] 92.5% | viability, T/C [14] 100% | viability, T/C [15] 102% | viability, T/C [16] 106% | viability, T/C [17] 88.3% | viability, T/C [18] 81.6% | viability, T/C [19] 81% | viability, T/C [20] 89.8% | viability, T/C [21] 77.5% | viability, T/C [22] 93.8% | viability, T/C [23] 92.1% | viability, T/C [24] 96% | viability, T/C (second compound 3.16 µM, first compound 0.0316 µM) 80.5% | viability, T/C (second compound 3.16 µM, first compound 0.1 µM) 84% | viability, T/C (second compound 3.16 µM, first compound 0.316 µM) 71.8% | viability, T/C (second compound 3.16 µM, first compound 1 µM) 81.2% | viability, T/C (second compound 3.16 µM, first compound 3.16 µM) 67% | viability, T/C (second compound 3.16 µM, first compound 10 µM) 65.7% | viability, T/C (second compound 10 µM, first compound 0.0316 µM) 61% | viability, T/C (second compound 10 µM, first compound 0.1 µM) 64.3% | viability, T/C (second compound 10 µM, first compound 0.316 µM) 68.6% | viability, T/C (second compound 10 µM, first compound 1 µM) 65.8% | viability, T/C (second compound 10 µM, first compound 3.16 µM) 50.4% | viability, T/C (second compound 10 µM, first compound 10 µM) 55.1%
> 10 µM: IC50 (second compound 0.0316 µM) | IC50 (second compound 0.1 µM) | IC50 (second compound 0.316 µM) | IC50 (second compound 1 µM) | IC50 (second compound 3.16 µM) | IC50 (second compound 10 µM)

Cn1nccc1Nc1nccc(-c2ccn(C(CO)c3ccc(Cl)c(F)c3)c(=O)c2)n1 (centres undefined) + CC(Nc1ccc2c(c1)OCCn1cc(N3C(=O)OCC3C(F)F)nc1-2)C(N)=O
inactive: viability, T/C (second compound 0.00316 µM, first compound 0.0316 µM) 80.8% | viability, T/C (second compound 0.00316 µM, first compound 0.1 µM) 90% | viability, T/C (second compound 0.00316 µM, first compound 0.316 µM) 92.5% | viability, T/C (second compound 0.00316 µM, first compound 1 µM) 85.4% | viability, T/C (second compound 0.00316 µM, first compound 3.16 µM) 72.5% | viability, T/C (second compound 0.00316 µM, first compound 10 µM) 61.9% | viability, T/C (second compound 0.01 µM, first compound 0.0316 µM) 85.5% | viability, T/C (second compound 0.01 µM, first compound 0.1 µM) 78.7% | viability, T/C (second compound 0.01 µM, first compound 0.316 µM) 81% | viability, T/C (second compound 0.01 µM, first compound 1 µM) 89.7% | viability, T/C (second compound 0.01 µM, first compound 3.16 µM) 82.5% | viability, T/C (second compound 0.01 µM, first compound 10 µM) 58.1% | viability, T/C [1] 69.4% | viability, T/C [2] 74.2% | viability, T/C [3] 69.8% | viability, T/C [4] 75.8% | viability, T/C [5] 83.8% | viability, T/C [6] 44.6% | viability, T/C [7] 70.4% | viability, T/C [8] 58% | viability, T/C [9] 64.1% | viability, T/C [10] 64.6% | viability, T/C [11] 60.9% | viability, T/C [12] 40.4% | viability, T/C [13] 49.5% | viability, T/C [14] 50.3% | viability, T/C [15] 55.5% | viability, T/C [16] 50.1% | viability, T/C [17] 40.7% | viability, T/C [18] 28.6% | viability, T/C [19] 39.1% | viability, T/C [20] 43% | viability, T/C [21] 38.7% | viability, T/C [22] 38.6% | viability, T/C [23] 31.9% | viability, T/C [24] 22.6%
5.84 µM: IC50 (second compound 0.1 µM)
> 10 µM: IC50 (second compound 0.00316 µM) | IC50 (second compound 0.01 µM) | IC50 (second compound 0.0316 µM)
< 0.0316 µM: IC50 (second compound 1 µM)
1.07 µM: IC50 (second compound 0.316 µM)
